Our source for the Ki values is patent US9193722B2, “Tri-cyclic pyrazolopyridine kinase inhibitors” (Vertex Pharmaceuticals Incorporated, priority 2008, dated 2015).

Where only a bound is given, the exact number is not on record here.

Common to all, as to type: biochemical
The target in test [1] is PKC theta kinase (Homo sapiens, UniProt Q04759). In words: PKC theta kinase inhibition, coupled-enzyme (NADH absorbance) assay, Ki. As to conditions: 240 μM ATP, 18 nM PKC theta kinase, 30° C. The method in brief:
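Coupled-enzyme kinase assay following NADH absorbance at 340 nm, in 100 mM HEPES pH 7.5, 10 mM MgCl2, 25 mM NaCl, 0.1 mM EDTA, 0.01% Brij. Compound in DMSO preincubated with enzyme 10 min at 30 °C. Ki from initial rates by non-linear regression.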

Test [2] has as its target PKC alpha kinase (Homo sapiens, UniProt P17252). Kind of test: PKC alpha kinase inhibition, coupled-enzyme (NADH absorbance) assay, Ki. As to conditions: 130 μM ATP, 4.5 nM PKC alpha kinase, 30° C. The essentials: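 Enzyme in 100 mM HEPES pH 7.5, 10 mM MgCl2, 100 μM CaCl2, 0.01% Brij, preincubated with compound 10 min at 30 °C. Reaction started with 130 μM ATP (final); NADH consumption followed at 340 nm for 15 min at 30 °C. Ki fitted by non-linear regression of initial rates.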

The target of test [3] is PKC delta kinase (Homo sapiens, UniProt Q05655). Kind of test: PKC delta kinase inhibition, coupled-enzyme (NADH absorbance) assay, Ki. The note with it: 150 μM ATP, 46 nM PKC delta kinase, 30° C.; read-out: Ki PKC delta. The method in brief:
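PKC delta in 100 mM HEPES pH 7.5, 10 mM MgCl2, 25 mM NaCl, 0.1 mM EDTA, 0.01% Brij, equilibrated 10 min at 30° C with compound from DMSO stock. Started with ATP at 150 μM final; NADH-coupled absorbance at 340 nm followed 15 min at 30° C. Ki from initial rates by non-linear regression.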

Sequence of PKC delta kinase (Q05655 whole entry): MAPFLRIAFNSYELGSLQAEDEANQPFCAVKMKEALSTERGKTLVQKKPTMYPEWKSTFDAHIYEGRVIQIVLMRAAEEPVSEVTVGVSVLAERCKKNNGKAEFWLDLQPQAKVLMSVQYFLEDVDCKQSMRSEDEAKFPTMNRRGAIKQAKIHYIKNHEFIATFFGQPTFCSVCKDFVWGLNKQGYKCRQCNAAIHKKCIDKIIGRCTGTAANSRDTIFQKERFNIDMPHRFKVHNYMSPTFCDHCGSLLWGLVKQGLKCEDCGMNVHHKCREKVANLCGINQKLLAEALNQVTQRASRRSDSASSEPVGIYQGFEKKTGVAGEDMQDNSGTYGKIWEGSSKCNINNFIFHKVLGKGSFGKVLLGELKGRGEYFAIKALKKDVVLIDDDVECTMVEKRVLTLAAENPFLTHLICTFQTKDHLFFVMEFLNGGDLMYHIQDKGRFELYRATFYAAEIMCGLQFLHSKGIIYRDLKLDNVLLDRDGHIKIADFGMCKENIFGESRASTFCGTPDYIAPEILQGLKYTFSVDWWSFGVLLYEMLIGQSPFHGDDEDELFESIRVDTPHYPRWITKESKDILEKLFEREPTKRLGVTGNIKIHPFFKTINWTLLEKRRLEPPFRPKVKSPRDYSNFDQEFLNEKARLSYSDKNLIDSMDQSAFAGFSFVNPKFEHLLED
Sequence of PKC theta kinase (Q04759 whole entry): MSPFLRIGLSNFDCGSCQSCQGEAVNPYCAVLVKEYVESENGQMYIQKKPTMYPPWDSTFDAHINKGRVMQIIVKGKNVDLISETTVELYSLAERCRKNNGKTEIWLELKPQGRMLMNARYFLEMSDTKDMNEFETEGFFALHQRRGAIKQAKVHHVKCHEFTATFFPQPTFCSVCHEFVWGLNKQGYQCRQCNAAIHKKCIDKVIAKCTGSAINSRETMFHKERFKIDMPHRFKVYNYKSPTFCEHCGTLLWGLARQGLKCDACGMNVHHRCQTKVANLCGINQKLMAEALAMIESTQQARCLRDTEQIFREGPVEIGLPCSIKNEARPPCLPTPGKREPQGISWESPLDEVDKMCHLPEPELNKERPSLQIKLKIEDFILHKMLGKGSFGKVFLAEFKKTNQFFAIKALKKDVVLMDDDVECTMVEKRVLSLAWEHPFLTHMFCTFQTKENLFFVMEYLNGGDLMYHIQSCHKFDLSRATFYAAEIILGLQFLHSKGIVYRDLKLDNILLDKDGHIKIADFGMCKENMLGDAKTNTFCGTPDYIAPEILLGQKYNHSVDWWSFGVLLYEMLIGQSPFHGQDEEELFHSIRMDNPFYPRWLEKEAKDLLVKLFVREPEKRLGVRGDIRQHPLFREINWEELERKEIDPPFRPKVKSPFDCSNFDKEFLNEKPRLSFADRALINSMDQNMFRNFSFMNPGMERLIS

`OC1(C2CN(c3ccc(C(F)(F)F)c(-c4n[nH]c5ncccc45)n3)CCN2)COC1` (stereo not drawn) [Compound 233]: the Ki in test [1] was above 700 nM; in test [2] it was above 1250 nM; in test [3], above 1250 nM.

For the molecule `N#CC1(c2cccc(-c3n[nH]c4ncccc34)n2)CCNCC1` [Compound 234], the Ki in test [1] is below 50 nM; in test [2] it was below 500 nM; in test [3], below 500 nM.

For `CC(C)C(C)(O)C1CN(c2ccc(C(F)(F)F)c(-c3n[nH]c4ncccc34)n2)CCN1` (stereo not drawn) [Compound 236], the Ki in test [1] is below 50 nM; in test [2], above 1250 nM; in test [3], above 1250 nM.

With `CC(C)C(C)C1CN(c2ccc(F)c(-c3n[nH]c4ncccc34)n2)CCN1` (stereo not drawn) [Compound 238], the figures for the Ki in test [1], in test [2] and in test [3] were below 50 nM, above 1250 nM and below 500 nM, respectively.

Regarding `OC1(C2CN(c3ccc(F)c(-c4n[nH]c5ncccc45)n3)CCN2)CCC1` (stereo not drawn) [Compound 240], the values for the Ki in test [1], in test [2] and in test [3] were below 50 nM, above 1250 nM and below 500 nM, respectively.

`CCC(C)(O)C1CN(c2ccc(F)c(-c3n[nH]c4ncccc34)n2)CCN1` (stereo not drawn) [Compound 241]: the results for the Ki in test [1], in test [2] and in test [3] were below 50 nM, below 2800 nM and below 500 nM, respectively.

As to `CCC(C)(O)C1CN(c2ccc(F)c(-c3n[nH]c4ncccc34)n2)CCN1` (stereo not drawn) [Compound 242], the Ki in test [1] is below 50 nM; in test [2] it was above 1250 nM; in test [3], below 500 nM.

`CCC(C)(O)C1CN(c2ccc(F)c(-c3n[nH]c4ncccc34)n2)CCN1` (stereo not drawn) [Compound 243]: the Ki was below 500 nM in test [1], above 1250 nM in test [2] and above 1250 nM in test [3].

For the molecule `CCC(C)(O)C1CN(c2ccc(F)c(-c3n[nH]c4ncccc34)n2)CCN1` (stereo not drawn) [Compound 244], the values for the Ki in test [1], in test [2] and in test [3] were below 500 nM, above 1250 nM and above 1250 nM, respectively.

`OC1(C2CN(c3ccc(F)c(-c4n[nH]c5ncccc45)n3)CCN2)CCCC1` (stereo not drawn) [Compound 245]: the Ki is below 50 nM in test [1], above 1250 nM in test [2] and below 500 nM in test [3].

For `CC(F)(F)C(C)(O)C1CN(c2ccc(F)c(-c3n[nH]c4ncccc34)n2)CCN1` (stereo not drawn) [Compound 246], the Ki was below 50 nM in test [1], above 1250 nM in test [2] and below 500 nM in test [3].

For the molecule `CC(O)(C1CC1)C1CN(c2ccc(F)c(-c3n[nH]c4ncccc34)n2)CCN1` (stereo not drawn) [Compound 247], the Ki in test [1] is below 50 nM; in test [2], below 2800 nM; in test [3], below 500 nM.

For the molecule `CC(C)(F)C(C)(O)C1CN(c2ccc(F)c(-c3n[nH]c4ncccc34)n2)CCN1` (stereo not drawn) [Compound 248], the figures for the Ki in test [1], in test [2] and in test [3] were below 1 nM, below 2800 nM and below 500 nM, respectively.

On to `CC(C)(F)C(C)(O)C1CN(c2ccc(F)c(-c3n[nH]c4ncccc34)n2)CCN1` (stereo not drawn) [Compound 249], for which the Ki in test [1] was below 50 nM; in test [2], above 1250 nM; in test [3] it was above 1250 nM.

Turning to `CC(C)(F)C(C)(O)C1CN(c2ccc(F)c(-c3n[nH]c4ncccc34)n2)CCN1` (stereo not drawn) [Compound 250], the figures for the Ki in test [1], in test [2] and in test [3] were below 50 nM, above 1250 nM and below 500 nM, respectively.

For `OC1([C@@H]2CN(c3ccc(F)c(-c4n[nH]c5ncccc45)n3)CCN2)CC1` [Compound 251], the Ki was below 50 nM in test [1], above 1250 nM in test [2] and below 500 nM in test [3].

Turning to `CC(C)C(O)C1CN(c2ccc(F)c(-c3n[nH]c4ncccc34)n2)CCN1` (stereo not drawn) [Compound 252], the values for the Ki in test [1], in test [2] and in test [3] were below 50 nM, below 2800 nM and below 500 nM, respectively.

Take `CC(C)(F)C(C)(O)C1CN(c2ccc(F)c(-c3n[nH]c4ncccc34)n2)CCN1` (stereo not drawn) [Compound 254]: the Ki is below 1 nM in test [1], above 1250 nM in test [2] and below 50 nM in test [3].

Turning to `O=C1CN(c2ccc(F)c(-c3n[nH]c4ncccc34)n2)CCN1` [Compound 255], the Ki in test [1] was above 700 nM; in test [2] it was above 1250 nM; in test [3] it was above 1250 nM.

As to `CC1CN(c2ccc(F)c(-c3n[nH]c4ncccc34)n2)CC(C2(O)CCC2)N1` (stereo not drawn) [Compound 256], the Ki was below 500 nM in test [1], above 1250 nM in test [2] and above 1250 nM in test [3].

In the case of `OCCC1CCCCN1c1ccc(C(F)(F)F)c(-c2n[nH]c3ncccc23)n1` (stereo not drawn) [Compound 257], the Ki in test [1] is above 700 nM; in test [2] it was above 1250 nM; in test [3], above 1250 nM.

Regarding `OCC1CCCN(c2ccc(C(F)(F)F)c(-c3n[nH]c4ncccc34)n2)C1` (stereo not drawn) [Compound 258], the Ki in test [1] is above 700 nM; in test [2], above 1250 nM; in test [3], above 1250 nM.

With `NC(=O)C1(N2CCCCC2)CCN(c2ccc(C(F)(F)F)c(-c3n[nH]c4ncccc34)n2)CC1` [Compound 259], the Ki in test [1] was above 700 nM; in test [2] it was above 1250 nM; in test [3], above 1250 nM.

With `Cc1cc([C@@H]2CN(c3ccc(F)c(-c4n[nH]c5ncccc45)n3)CCN2)[nH]n1` [Compound 260], the results for the Ki in test [1], in test [2] and in test [3] were below 500 nM, above 1250 nM and above 1250 nM, respectively.

Regarding `CC1CN(c2ccc(C(F)(F)F)c(-c3n[nH]c4ncccc34)n2)CC(C2(O)CCC2)N1` (stereo not drawn) [Compound 261], the Ki in test [1] was above 700 nM; in test [2] it was above 1250 nM; in test [3], above 1250 nM.

On to `CC(N)[C@H]1CCCN(c2ccc(F)c(-c3n[nH]c4ncccc34)n2)C1` (stereo partly drawn) [Compound 262], for which the Ki in test [1] was below 50 nM; in test [2] it was above 1250 nM; in test [3], below 500 nM.

For the molecule `CC(C)C(O)(CF)C1CN(c2ccc(F)c(-c3n[nH]c4ncccc34)n2)CCN1` (stereo not drawn) [Compound 264], the Ki in test [1] is below 50 nM; in test [2], above 1250 nM; in test [3], below 500 nM.

Turning to `CC(C)C(N)[C@H]1CCCN(c2ccc(C(F)(F)F)c(-c3n[nH]c4ncccc34)n2)C1` (stereo partly drawn) [Compound 265], the Ki in test [1] was below 500 nM; in test [2], above 1250 nM; in test [3], below 500 nM.

For `Fc1ccc(N2CCCCC2)nc1-c1n[nH]c2ncccc12` [Compound 266], the values for the Ki in test [1], in test [2] and in test [3] were above 700 nM, above 1250 nM and above 1250 nM, respectively.

For `Fc1ccc(N2CCC(F)CC2)nc1-c1n[nH]c2ncccc12` [Compound 267], the Ki in test [1] was above 700 nM; in test [2] it was above 1250 nM; in test [3] it was above 1250 nM.

In the case of `Fc1ccc(N2CCC(C(F)(F)F)CC2)nc1-c1n[nH]c2ncccc12` [Compound 268], the figures for the Ki in test [1], in test [2] and in test [3] were above 700 nM, above 1250 nM and above 1250 nM, respectively.

For the molecule `CC(C)C[C@@]1(O)CN(c2ccc(F)c(-c3n[nH]c4ncccc34)n2)CC[C@@H]1N` [Compound 269], the Ki in test [1] was below 50 nM; in test [2] it was below 500 nM; in test [3], below 500 nM.

On to `CC(C)C(N)[C@H]1CCCN(c2ccc(F)c(-c3n[nH]c4ncccc34)n2)C1` (stereo partly drawn) [Compound 270], for which the Ki in test [1] is below 50 nM; in test [2], above 1250 nM; in test [3], above 1250 nM.

As for `C[C@](O)(c1ccccc1)[C@@H]1CN(c2ccc(F)c(-c3n[nH]c4ncccc34)n2)CCN1` [Compound 274], the Ki in test [1] is below 500 nM; in test [2], above 1250 nM; in test [3], above 1250 nM.

Consider `N#CC1CCN(c2ccc(F)c(-c3n[nH]c4ncccc34)n2)CC1` [Compound 275], for which the Ki is above 700 nM in test [1], above 1250 nM in test [2] and above 1250 nM in test [3].

In the case of `CC(C)C(C)(O)[C@H]1CCCN(c2ccc(F)c(-c3n[nH]c4ncccc34)n2)C1` (stereo partly drawn) [Compound 277], the Ki in test [1] was below 500 nM; in test [2], above 1250 nM; in test [3], above 1250 nM.

Take `CC(C)C(O)[C@@H]1CCCN(c2ccc(F)c(-c3n[nH]c4ncccc34)n2)C1` (stereo partly drawn) [Compound 278]: the Ki in test [1] was below 500 nM; in test [2], above 1250 nM; in test [3], above 1250 nM.

For the molecule `CC(C)C(N)C1CCCN(c2ccc(F)c(-c3n[nH]c4ncccc34)n2)C1` (stereo not drawn) [Compound 280], the Ki is below 50 nM in test [1], below 2800 nM in test [2] and below 500 nM in test [3].

`CC(C)C(N)[C@@H]1CCCN(c2ccc(F)c(-c3n[nH]c4ncccc34)n2)C1` (stereo partly drawn) [Compound 281]: the figures for the Ki in test [1], in test [2] and in test [3] were below 50 nM, above 1250 nM and above 1250 nM, respectively.

Consider `CC(F)(F)C(C)(O)C1CN(c2ccc(F)c(-c3n[nH]c4ncccc34)n2)CCN1` (stereo not drawn) [Compound 282], for which the Ki was below 50 nM in test [1], above 1250 nM in test [2] and below 2800 nM in test [3].

Turning to `CC(F)(F)C(C)(O)C1CN(c2ccc(F)c(-c3n[nH]c4ncccc34)n2)CCN1` (stereo not drawn) [Compound 283], the figures for the Ki in test [1], in test [2] and in test [3] were below 1 nM, below 2800 nM and below 50 nM, respectively.

Consider `CC(C)CC1(N)CCCN(c2ccc(F)c(-c3n[nH]c4ncccc34)n2)C1` (stereo not drawn) [Compound 284], for which the Ki was below 500 nM in test [1], above 1250 nM in test [2] and above 1250 nM in test [3].

`CC(C)CC1(N)CCCN(c2ccc(C(F)(F)F)c(-c3n[nH]c4ncccc34)n2)C1` (stereo not drawn) [Compound 285]: the Ki was below 500 nM in test [1], above 1250 nM in test [2] and above 1250 nM in test [3].
